Assay results taken from patent US5458876A, “Control of microbial growth with lantibiotic/lysozyme formulations” (priority 1990, dated 1995).
Ends that are not written are not given here.

Columns and labels:
[1] = test system: Listeria monocytogenes Scott A; test: Disk inhibition of growth on BHI agar overlay plates; type: cell-based; details: 10 μl on disks, overnight 37° C.; nisin below 50 IU/ml; lysozyme up to and including 125 μg/ml; blend 50 IU/ml nisin and 50 μg/ml lysozyme
Protocol: A culture of Listeria monocytogenes Scott A was grown overnight in Brain Heart Infusion broth (BHI, Difco Laboratories, Inc.). Overlay plates were prepared using 25 ml of BHI agar overlayed with 4 ml BHI agar containing 10 μl of the overnight culture. Sterile antibiotic sensitivity disks were blotted with 10 μl of nisin, lysozyme or nisin/lysozyme blends at various concentrations; placed on the surface of the overlay plates and incubated overnight at 37° C.

Staphlococcus aureus = test: Minimal inhibitory concentration in BHI broth; type: cell-based; details: lysozyme alone, 37° C.
Protocol: The synergy of nisin and lysozyme is not limited to the control of L. monocytogenes. The minimal inhibitory concentration (MIC) of nisin was lowered by the addition of lysozyme for the control of other gram positive bacteria. For example, a culture of Staphlococcus aureus was grown overnight in BHI broth and subsequently diluted into fresh BHI broth with various concentrations of nisin, lysozyme or a combination of nisin and lysozyme. […] Accordingly, one can use less nisin to provide an equivalent level of control by the addition of a synergistic amount of lysozyme.

L. monocytogenes = test: Growth of L. monocytogenes in inoculated raw pork sausage (surface response model); type: cell-based, Listeria monocytogenes; details: alone, 0-500 IU/gm nisin or 0-500 ppm lysozyme; 3 days at 5° C.
Protocol: L. monocytogenes can grow at 5° C. and poses a threat to some processed meats. Its control can include reduction in the rate of growth, bacteriostatic effects, and most desirably, bacteriocidal effects.
Raw sausage was inoculated with L. monocytogenes from a BHI overnight culture; various amounts of nisin and/or lysozyme were incorporated into the sausage. The treated sausage was held for either 3 or 21 days at 5° C. whereupon viable L. monocytogenes were enumerated. A surface response model was constructed over a range of 0-500 IU/gm nisin and 0-500 ppm lysozyme. The surface response model from the 3 day data are set out in the following FIG. 3. […] Similar synergies are seen at other levels of nisin and lysozyme.

L. monocytogenes Scott A = test: Survival of cells in citric acid buffer with subtilin and/or lysozyme; type: cell-based, Listeria monocytogenes; details: for Surviving Cells After 1 Hour at 25° C.: 10 mM citric acid buffer pH 5.5, untreated 7.5; for Surviving Cells After 1 Hour at 25° C. / log10 reduction: subtilin 100 μ/ml and/or lysozyme 500 ppm; for log10 reduction / effect on the L. monocytogenes cells: 1 hour at 25° C., pH 5.5; for effect on the L. monocytogenes cells: alone, subtilin 100 μ/ml or lysozyme 500 ppm
Protocol: A culture of L. monocytogenes Scott A was grown overnight in BHI broth and diluted 1:100 in 10 mM citric acid buffer (pH 5.5). This preparation, 100 μl, was added to 900 μl of citric acid buffer containing subtilin, lysozyme or both. The subtilin used in this experiment was prepared by the pure culture fermentation of Bacillus subtillus ATCC 6633 as described by Banerjee and Hansen in J. Biol. Chem. 1988 263 (19): 9508-9514.

[2] = test system: S. typhimurium (ATCC 14028); test: Survival of cells in citric acid buffer with nisin and/or lysozyme; type: cell-based, Salmonella typhimurium
Protocol: A culture of S. typhimurium (ATCC 14028) was grown overnight on nutrient broth, diluted in 10 mM citric acid buffer (pH 3.5) and added to citric acid buffer containing nisin, lysozyme or a combination thereof.

[3] = test system: Listeria monocytogenes, Scott A; test: Lysis of washed cells at various pH levels (loss of absorbance at 540 nm); type: cell-based; details: 100 IU/ml nisin alone or 10 μg/ml lysozyme alone; 37°
Protocol: A culture of Listeria monocytogenes, Scott A, was grown overnight in BHI broth and harvested by centrifugation. The harvested cells were washed with 0.067M Potassium phosphate buffer (pH 6.6) and resuspended in 0.067M potassium phosphate buffer at various pH levels to a final absorbance of about 1.0 at 540 nm as determined in a Bausch & Lomb spectronic 20. Lysis of the bacteria is accompanied by a loss in absorbance at 540 nm. Nisin and lysozyme were added to these solutions to final concentrations of 100 IU/ml nisin and 10 μg/ml lysozyme and the solutions were placed in a 37° water bath whereupon the change in adsorption at 540 nm was monitored.

| Substance | inhibition of bacterial growth (zone of inhibition around disks) [1] | effect on subsequent growth of the bacteria (Staphlococcus aureus) | control of L. monocytogenes in raw sausage (L. monocytogenes) | Surviving Cells After 1 Hour at 25° C. (L. monocytogenes Scott A) | log10 reduction (L. monocytogenes Scott A) [log10] | effect on the L. monocytogenes cells (L. monocytogenes Scott A) | Surviving Cells After 1 Hour at 37° C. ([2]; 10 mM citric acid buffer pH 3.5, nisin 1000 IU/ml and/or lysozyme 500 μg/ml, untreated 7.18) | log10 reduction ([2]; 1 hour at 37° C., pH 3.5, nisin 1000 IU/ml and/or lysozyme 500 μg/ml) [log10] | effect against S. typhimurium ([2]; lysozyme 500 μg/ml alone, 1 hour at 37° C., pH 3.5) | pH of maximum lysis [3] |
| --- | --- | --- | --- | --- | --- | --- | --- | --- | --- | --- |
| lysozyme | nor was inhibition observed | did not affect | ineffective | 7.4 log10 colony forming units/ml | 0.1 | little effect | 7.08 log10 colony forming units/ml | 0.10 | ineffective | 6.0-6.5 pH |
| subtilin (WKSESLCTPGCVTGALQTCFLQTLTCNCKISK; cysteine pairing not given here; also: lantibiotic thioether and dehydro residues, places not given here; UniProt P10946 25-56, looked up) [lantibiotic prepared by pure culture fermentation of Bacillus subtillus ATCC 6633, reference compound] |  |  |  | 7.2 log10 colony forming units/ml | 0.3 | little effect |  |  |  |  |
